The target in the first series is Sodium-dependent noradrenaline transporter (Homo sapiens, UniProt P23975). The experiment in a line: DRUGMATRIX: Norepinephrine Transporter radioligand binding (ligand: [125I] RTI-55). The format is cell membranes, MDCK, Membrane. The note with it: mdck; Not Active = under 50% inhibition at 10 µM.
Sequence of Cytochrome P450 2C9 (P11712 whole entry): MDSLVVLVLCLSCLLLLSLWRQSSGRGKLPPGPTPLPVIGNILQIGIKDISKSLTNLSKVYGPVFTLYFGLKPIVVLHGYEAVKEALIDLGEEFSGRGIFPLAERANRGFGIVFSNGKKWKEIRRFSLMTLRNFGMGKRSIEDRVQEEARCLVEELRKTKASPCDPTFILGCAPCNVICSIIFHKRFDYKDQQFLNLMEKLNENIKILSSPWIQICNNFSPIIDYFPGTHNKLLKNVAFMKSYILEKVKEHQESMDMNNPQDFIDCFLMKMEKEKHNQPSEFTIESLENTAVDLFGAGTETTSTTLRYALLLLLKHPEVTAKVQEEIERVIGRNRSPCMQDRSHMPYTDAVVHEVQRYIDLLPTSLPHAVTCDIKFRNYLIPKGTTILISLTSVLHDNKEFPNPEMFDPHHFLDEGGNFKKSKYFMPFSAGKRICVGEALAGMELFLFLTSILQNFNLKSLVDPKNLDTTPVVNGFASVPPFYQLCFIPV
Sequence of Sodium-dependent noradrenaline transporter (P23975 whole entry): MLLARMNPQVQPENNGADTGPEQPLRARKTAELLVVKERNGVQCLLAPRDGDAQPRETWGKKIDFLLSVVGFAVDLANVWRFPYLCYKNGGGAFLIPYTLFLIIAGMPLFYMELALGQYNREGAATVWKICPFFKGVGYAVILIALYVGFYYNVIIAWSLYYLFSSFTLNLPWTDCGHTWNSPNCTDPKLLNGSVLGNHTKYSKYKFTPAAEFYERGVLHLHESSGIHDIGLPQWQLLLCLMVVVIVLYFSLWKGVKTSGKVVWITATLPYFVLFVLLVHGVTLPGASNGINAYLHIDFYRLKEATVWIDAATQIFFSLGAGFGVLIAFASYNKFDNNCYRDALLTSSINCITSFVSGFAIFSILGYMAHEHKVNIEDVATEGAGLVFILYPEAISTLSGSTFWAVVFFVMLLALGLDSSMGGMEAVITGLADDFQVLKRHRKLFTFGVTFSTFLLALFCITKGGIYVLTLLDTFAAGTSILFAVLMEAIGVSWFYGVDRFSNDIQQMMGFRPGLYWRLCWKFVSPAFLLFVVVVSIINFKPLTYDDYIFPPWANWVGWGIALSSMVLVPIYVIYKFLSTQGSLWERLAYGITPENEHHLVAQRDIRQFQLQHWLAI
`CC(=O)O[C@]1(C(C)=O)CC[C@H]2[C@@H]3C=C(Cl)C4=CC(=O)CC[C@]4(C)[C@H]3CC[C@@]21C` [CHLORMADINONE ACETATE]: the IC50 result is listed as “Not Active”.

Tested on in the next series: not listed separately
Put plainly: DRUGMATRIX: Atrial Natriuretic Factor (ANF) radioligand binding (ligand: [125I] ANF (rat)). The format is cell membranes, Cavia porcellus, Dunkin-Hartley, Adrenal gland, Membrane. The note with it: Not Active = under 50% inhibition at 10 µM.
As for `CC(=O)O[C@]1(C(C)=O)CC[C@H]2[C@@H]3C=C(Cl)C4=CC(=O)CC[C@]4(C)[C@H]3CC[C@@]21C` [CHLORMADINONE ACETATE], the IC50 entry is “Not Active” and the Ki entry is “Not Active”.

The target of another series is T1, Endothelin-1 receptor (Homo sapiens, UniProt P25101). Note: in other assays of this panel Not Active means under 50% inhibition at 10 µM.
T1 sequence (P25101 whole entry): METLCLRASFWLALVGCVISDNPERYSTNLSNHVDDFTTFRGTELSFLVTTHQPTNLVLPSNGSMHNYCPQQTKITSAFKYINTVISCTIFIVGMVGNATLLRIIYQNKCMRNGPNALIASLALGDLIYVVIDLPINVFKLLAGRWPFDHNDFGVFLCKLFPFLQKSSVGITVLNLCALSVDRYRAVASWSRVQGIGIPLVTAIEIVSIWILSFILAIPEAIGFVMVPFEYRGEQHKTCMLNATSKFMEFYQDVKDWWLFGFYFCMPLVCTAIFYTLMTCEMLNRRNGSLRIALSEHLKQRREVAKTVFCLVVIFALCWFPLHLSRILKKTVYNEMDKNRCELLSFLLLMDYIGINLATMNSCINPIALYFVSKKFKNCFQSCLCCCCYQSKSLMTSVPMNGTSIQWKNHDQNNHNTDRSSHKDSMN
The series is classed as cell membranes, Membrane. The settings on record: cho-k1.
Take `CC(=O)O[C@]1(C(C)=O)CC[C@H]2[C@@H]3C=C(Cl)C4=CC(=O)CC[C@]4(C)[C@H]3CC[C@@]21C` [CHLORMADINONE ACETATE]: the IC50 entry is listed as “Not Active”.

Tested on in another series: not listed separately
The experiment in a line: DRUGMATRIX: GABAA, Flunitrazepam, Central radioligand binding (ligand: [3H] Flunitrazepam). The series is classed as cell membranes, Rattus norvegicus, Wistar, Brain, Membrane. The note with it: Not Active = under 50% inhibition at 10 µM.
In the case of `CC(=O)O[C@]1(C(C)=O)CC[C@H]2[C@@H]3C=C(Cl)C4=CC(=O)CC[C@]4(C)[C@H]3CC[C@@]21C` [CHLORMADINONE ACETATE], the IC50 result is “Not Active” and the Ki entry is given as “Not Active”.

Another series concerns the target T2, Muscarinic acetylcholine receptor M2 (Homo sapiens, UniProt P08172). Note: in other assays of this panel Not Active means under 50% inhibition at 10 µM.
T2 sequence (P08172 whole entry): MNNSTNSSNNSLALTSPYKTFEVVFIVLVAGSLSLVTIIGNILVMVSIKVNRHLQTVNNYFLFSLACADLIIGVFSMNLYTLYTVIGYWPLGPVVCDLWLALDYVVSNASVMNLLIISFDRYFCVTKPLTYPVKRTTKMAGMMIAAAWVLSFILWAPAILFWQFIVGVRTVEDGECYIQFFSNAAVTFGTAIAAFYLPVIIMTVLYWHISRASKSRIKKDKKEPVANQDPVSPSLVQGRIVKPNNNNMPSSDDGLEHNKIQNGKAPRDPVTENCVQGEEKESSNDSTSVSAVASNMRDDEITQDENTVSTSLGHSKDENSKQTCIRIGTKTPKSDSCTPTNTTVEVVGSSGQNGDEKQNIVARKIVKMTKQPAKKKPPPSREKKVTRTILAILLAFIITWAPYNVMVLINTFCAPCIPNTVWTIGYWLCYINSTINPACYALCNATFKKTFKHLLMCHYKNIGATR
The series is classed as cell membranes, CHO-K1, Membrane. The settings on record: cho-k1.
For `CC(=O)O[C@]1(C(C)=O)CC[C@H]2[C@@H]3C=C(Cl)C4=CC(=O)CC[C@]4(C)[C@H]3CC[C@@]21C` [CHLORMADINONE ACETATE], the IC50 entry is listed as “Not Active”.

The next series has as its target Cytochrome P450 2C9 (Homo sapiens, UniProt P11712). The note with it: bti-tn-5b1-4. Note: in other assays of this panel Not Active means under 50% inhibition at 10 µM.
Consider `CC(=O)O[C@]1(C(C)=O)CC[C@H]2[C@@H]3C=C(Cl)C4=CC(=O)CC[C@]4(C)[C@H]3CC[C@@]21C` [CHLORMADINONE ACETATE], for which the IC50 entry was “Not Active” and the Ki result is on record as “Not Active”.

In another series the target is Beta-2 adrenergic receptor (Homo sapiens, UniProt P07550). The experiment in a line: DRUGMATRIX: Adrenergic beta2 radioligand binding (ligand: [3H] CGP-12177). The series is classed as cell membranes, Membrane. The settings on record: cho; Not Active = under 50% inhibition at 10 µM.
Sequence of Beta-2 adrenergic receptor (P07550 whole entry): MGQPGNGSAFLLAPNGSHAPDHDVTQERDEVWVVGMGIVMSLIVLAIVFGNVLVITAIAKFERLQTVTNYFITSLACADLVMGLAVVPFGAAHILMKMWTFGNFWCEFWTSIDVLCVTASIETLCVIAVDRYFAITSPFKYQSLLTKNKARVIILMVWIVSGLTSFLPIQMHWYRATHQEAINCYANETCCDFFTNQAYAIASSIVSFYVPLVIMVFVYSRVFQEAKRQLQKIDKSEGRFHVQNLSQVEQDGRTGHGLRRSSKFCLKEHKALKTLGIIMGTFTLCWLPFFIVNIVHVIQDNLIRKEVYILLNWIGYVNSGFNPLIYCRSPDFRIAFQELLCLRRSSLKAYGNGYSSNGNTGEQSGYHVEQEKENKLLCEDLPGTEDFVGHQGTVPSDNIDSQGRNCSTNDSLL
For `CC(=O)O[C@]1(C(C)=O)CC[C@H]2[C@@H]3C=C(Cl)C4=CC(=O)CC[C@]4(C)[C@H]3CC[C@@]21C` [CHLORMADINONE ACETATE], the IC50 result is “Not Active”.

A further series deals with T3, 5-hydroxytryptamine receptor 1A (Rattus norvegicus, UniProt P19327).
T3 sequence (P19327 whole entry): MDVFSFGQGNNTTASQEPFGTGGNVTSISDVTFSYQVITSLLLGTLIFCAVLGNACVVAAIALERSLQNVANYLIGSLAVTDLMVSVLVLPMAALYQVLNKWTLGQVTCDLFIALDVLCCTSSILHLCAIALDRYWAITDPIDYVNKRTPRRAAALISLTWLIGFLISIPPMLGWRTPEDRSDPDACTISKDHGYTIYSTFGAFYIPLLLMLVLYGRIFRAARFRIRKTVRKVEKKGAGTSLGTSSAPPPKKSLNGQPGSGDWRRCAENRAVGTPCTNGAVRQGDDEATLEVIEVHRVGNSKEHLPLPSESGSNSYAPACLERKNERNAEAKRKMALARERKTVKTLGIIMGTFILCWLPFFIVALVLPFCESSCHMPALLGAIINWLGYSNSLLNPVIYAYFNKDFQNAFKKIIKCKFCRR
The series is classed as cell membranes, CHO-K1, Membrane. The note with it: cho-k1.
On to `CC(=O)O[C@]1(C(C)=O)CC[C@H]2[C@@H]3C=C(Cl)C4=CC(=O)CC[C@]4(C)[C@H]3CC[C@@]21C` [CHLORMADINONE ACETATE], for which the IC50 result is on record as “Not Active”.

The target of a further series is Protein phosphatase 3 catalytic subunit alpha (Homo sapiens, UniProt Q08209). Details: species or system Escherichia coli.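 Note: inhibition of calcineurin (PP2B) enzyme activity, measured with DiFMUP as the substrate; in other assays of this panel Not Active means under 50% inhibition at 10 µM.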
Conditions: not given
As to `CC(=O)O[C@]1(C(C)=O)CC[C@H]2[C@@H]3C=C(Cl)C4=CC(=O)CC[C@]4(C)[C@H]3CC[C@@]21C` [CHLORMADINONE ACETATE], the IC50 entry is “Not Active”.

Tested on in the next series: not listed separately
Put plainly: DRUGMATRIX: Calcium Channel Type L, Dihydropyridine radioligand binding (ligand: [3H] Nitrendipine). The settings on record: Not Active = under 50% inhibition at 10 µM. The series is classed as cell membranes, Rattus norvegicus, Wistar, Cerebral cortex, Membrane.
As for `CC(=O)O[C@]1(C(C)=O)CC[C@H]2[C@@H]3C=C(Cl)C4=CC(=O)CC[C@]4(C)[C@H]3CC[C@@]21C` [CHLORMADINONE ACETATE], the IC50 entry is “Not Active” and the Ki result was “Not Active”.

For the next series, the target named is T4, Alpha-2C adrenergic receptor (Homo sapiens, UniProt P18825).
T4 sequence (P18825 whole entry): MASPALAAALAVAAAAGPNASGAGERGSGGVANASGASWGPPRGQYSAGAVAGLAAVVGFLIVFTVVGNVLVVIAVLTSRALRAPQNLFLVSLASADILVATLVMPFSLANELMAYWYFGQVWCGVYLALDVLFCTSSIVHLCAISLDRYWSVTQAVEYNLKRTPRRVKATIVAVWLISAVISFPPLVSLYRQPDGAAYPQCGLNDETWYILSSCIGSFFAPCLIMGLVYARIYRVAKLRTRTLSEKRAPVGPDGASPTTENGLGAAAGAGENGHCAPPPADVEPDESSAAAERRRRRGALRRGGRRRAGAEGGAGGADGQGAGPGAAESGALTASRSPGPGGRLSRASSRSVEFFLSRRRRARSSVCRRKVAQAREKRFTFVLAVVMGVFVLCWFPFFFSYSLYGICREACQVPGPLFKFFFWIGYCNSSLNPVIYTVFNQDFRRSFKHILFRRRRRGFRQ
Put plainly: DRUGMATRIX: Adrenergic Alpha-2C radioligand binding (ligand: [3H] MK-912). The format is cell membranes, Sf9, Membrane. The settings on record: sf9.
As to `CC(=O)O[C@]1(C(C)=O)CC[C@H]2[C@@H]3C=C(Cl)C4=CC(=O)CC[C@]4(C)[C@H]3CC[C@@]21C` [CHLORMADINONE ACETATE], the IC50 result was “Not Active”.

Another series deals with Kappa-type opioid receptor (Homo sapiens, UniProt P41145). Put plainly: DRUGMATRIX: Opiate kappa (OP2, KOP) radioligand binding (ligand: [3H] Diprenorphine). The series is classed as cell membranes, HEK293, Membrane. The settings on record: hek293; Not Active = under 50% inhibition at 10 µM.
Sequence of Kappa-type opioid receptor (P41145 whole entry): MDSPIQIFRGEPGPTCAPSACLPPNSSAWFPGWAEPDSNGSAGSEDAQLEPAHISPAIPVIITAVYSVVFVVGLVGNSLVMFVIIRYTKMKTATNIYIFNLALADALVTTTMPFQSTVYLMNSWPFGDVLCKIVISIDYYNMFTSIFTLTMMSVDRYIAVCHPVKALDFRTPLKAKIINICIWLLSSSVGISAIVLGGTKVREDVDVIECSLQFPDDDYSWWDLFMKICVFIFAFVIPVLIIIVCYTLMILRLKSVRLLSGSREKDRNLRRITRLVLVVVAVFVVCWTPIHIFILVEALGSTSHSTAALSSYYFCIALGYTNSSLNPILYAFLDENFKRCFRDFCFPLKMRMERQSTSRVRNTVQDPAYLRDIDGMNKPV
As to `CC(=O)O[C@]1(C(C)=O)CC[C@H]2[C@@H]3C=C(Cl)C4=CC(=O)CC[C@]4(C)[C@H]3CC[C@@]21C` [CHLORMADINONE ACETATE], the IC50 result is recorded as “Not Active”.

Tested on in another series: not listed separately
The experiment in a line: DRUGMATRIX: Phosphodiesterase PDE3 enzyme inhibition (substrate: [3H]cAMP + cAMP). The settings on record: platelet; Not Active = under 50% inhibition at 10 µM. The series is classed as tissue-based, Homo sapiens.
`CC(=O)O[C@]1(C(C)=O)CC[C@H]2[C@@H]3C=C(Cl)C4=CC(=O)CC[C@]4(C)[C@H]3CC[C@@]21C` [CHLORMADINONE ACETATE]: the IC50 result was “Not Active” and the Ki entry is given as “Not Active”.

For the next series, the target named is Cannabinoid receptor 1 (Homo sapiens, UniProt P21554). The series is classed as cell membranes, Membrane. The settings on record: chem-1. Note: in other assays of this panel Not Active means under 50% inhibition at 10 µM.
Sequence of Cannabinoid receptor 1 (P21554 whole entry): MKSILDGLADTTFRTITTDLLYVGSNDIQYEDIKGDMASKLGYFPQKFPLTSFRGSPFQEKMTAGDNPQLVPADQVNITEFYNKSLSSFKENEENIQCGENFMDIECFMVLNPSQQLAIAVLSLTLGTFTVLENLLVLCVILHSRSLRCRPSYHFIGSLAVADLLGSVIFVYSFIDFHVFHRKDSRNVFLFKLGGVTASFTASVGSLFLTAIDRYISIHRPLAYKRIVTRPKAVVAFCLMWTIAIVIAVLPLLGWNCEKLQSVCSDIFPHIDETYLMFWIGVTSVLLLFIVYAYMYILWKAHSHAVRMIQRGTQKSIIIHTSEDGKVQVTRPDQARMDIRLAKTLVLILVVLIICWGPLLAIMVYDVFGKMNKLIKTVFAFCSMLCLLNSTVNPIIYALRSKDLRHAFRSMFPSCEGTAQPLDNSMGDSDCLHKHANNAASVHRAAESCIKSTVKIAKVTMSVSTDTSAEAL
`CC(=O)O[C@]1(C(C)=O)CC[C@H]2[C@@H]3C=C(Cl)C4=CC(=O)CC[C@]4(C)[C@H]3CC[C@@]21C` [CHLORMADINONE ACETATE]: the IC50 result is “Not Active”.

The record behind these values is ChEMBL document CHEMBL1909046, “DrugMatrix in vitro pharmacology data”.
